Measurements taken from PubChem BioAssay AID1963828 (Molecular Pharmacology Branch, DTP, NCI, 2024).

Tested on: 991263-137-R1-J2-PDC complex spheroid viability
Assay: Anticancer human tumor 991263-137-R1-J2-PDC patient-derived colon adenocarcinoma cell line growth inhibition [POLQ]
Conditions: for IC50: curve of first compound; for viability, T/C: stronger effect = lower value
Protocol: Multicellular complex tumor spheroid response to Polymerase (POL) inhibitors (novobiocin, ART-558, RP6685) in combination with a variety of drugs and investigational agents in selected tumor cell lines
The POL inhibitors (novobiocin, ART-558, and RP6685) were evaluated both individually and in combination with standard of care and investigational anticancer small molecules within a complex spheroid model of solid tumors. . Complex spheroids include a stromal component modeled by human endothelial cells (HUVEC) and fibroblasts modeled by human mesenchymal stem cells (MSCs). The concentration ranges selected for each drug and investigational agent were based upon clinically achievable concentrations if the clinical Cmax of the agent was known.
Compounds. The drugs and investigational agents: novobiocin (NSC847541), ART-558 (NSC835418), RP-6685 (NSC848927), peposertib (NSC802822), ceralasertib (NSC780249), elimusertib (NSC800525), camonsertib (NSC841442), AZD-1390 (NSC803789), olaparib (NSC753686), talazoparib (NSC767125), rucaparib (NSC756644), sotorasib (NSC818433), MRTX-1133 (NSC836407), SN-38 (NSC673596), topotecan (NSC609699), epotoside (NSC141540), doxorubicin (NSC123127), gemcitabine (NSC613327), 5-fluorouracil (NSC19893), paclitaxel (NSC125973), vemurafenib (NSC761431), MSA-2 (NSC828583), SN-011 (NSC837082), adavosertib (NSC754352), prexasertib (NSC758257), carboplatin (NSC241240) and oxaliplatin (NSC266046), were obtained from the National Cancer Institute (NCI) Developmental Therapeutics Program Chemical Repository (21). The FDA-approved anticancer drug set is available from the Developmental Therapeutics Program at https://dtp.cancer.gov/organization/dscb/obtaining/. […] The stock solutions were prepared in dimethyl sulfoxide (DMSO, Sigma-Aldrich, St. Louis, MO, cat. D2650), except for the platinum compounds which were prepared in saline (Quality Biological, Gaithersburg, MD, cat. 114-055-101), at 800-fold the tested concentration and stored at -70 degrees C prior to their use. All drugs and investigational agents were tested over a range starting from a high concentration at or near the clinical Cmax and decreasing in half-log increments. If the clinical Cmax for an agent had not been determined, the highest concentration tested was 10 microM, except for SN-38, which was tested at a high concentration of 1 microM.
Cell Culture. All cells were maintained in an incubator at 37 degrees C and 5% CO2 with 95% humidity. The PDC lines were cultured according to standard operating procedures established by the NCI PDMR (https://pdmr.cancer.gov). Table 3 of the manuscript, lists the cell lines along with the number of the three cell types plated to form the mct-spheroids and media for tumor cell growth. After thawing, all PDC lines, except 997537-175-T-J1-PDC and 415267-285-R-J2-PDC, were cultured in Matrigel-coated flasks prepared with a working solution of 1X Ham's F-12 nutrient mix, without supplementation (Thermo Fisher Scientific, cat. 11765054), 100 U/mL penicillin-streptomycin (Thermo Fisher Scientific, cat. 15140122), and 2.5% Matrigel (Corning Inc., Corning, NY, cat. 354248) for the first three passages. The two PDC lines 997537-175-T-J1-PDC and 415267-285-R-J2-PDC were cultured on uncoated flasks. The 857933-349-R-J2-PDC line was cultured in 6C/Colon 1B media containing advanced DMEM/F-12 (Thermo Fisher Scientific, cat. 12634028), 10 mM HEPES (Thermo Fisher Scientific, cat. 15630080), 1X GlutaMAX supplement (Thermo Fisher Scientific, cat. 35050061), 0.1 mg/mL primocin (InvivoGen, San Diego, CA, cat. ant-pm-2), 10% defined fetal bovine serum, heat inactivated (HyClone Laboratories Inc., Logan, UT, cat. SH30070.03HI), 50% L-WRN conditioned media (ATCC, cat. CRL-3276), 1.25 mM N-Acetyl-L-cysteine (Sigma-Aldrich, cat. A9165), 10 mM nicotinamide (Sigma-Aldrich, cat. N0636), 1X B-27 supplement (Thermo Fisher Scientific, cat. 17504044), 1X N-2 supplement (Thermo Fisher Scientific, cat. […]

[1] = second compound 0.0316 µM, first compound 0.0316 µM
[2] = second compound 0.0316 µM, first compound 0.1 µM
[3] = second compound 0.1 µM, first compound 0.0316 µM
[4] = second compound 0.1 µM, first compound 0.1 µM
[5] = second compound 0.316 µM, first compound 0.0316 µM
[6] = second compound 0.316 µM, first compound 0.1 µM
[7] = second compound 1 µM, first compound 0.0316 µM
[8] = second compound 1 µM, first compound 0.1 µM
[9] = second compound 3.16 µM, first compound 0.0316 µM
[10] = second compound 3.16 µM, first compound 0.1 µM
[11] = second compound 10 µM, first compound 0.0316 µM
[12] = second compound 10 µM, first compound 0.1 µM
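Also: spheroids exposed to compounds for 7 days before readout.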
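For viability, T/C in this document: 100% = DMSO vehicle control viability.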

Cn1ncnc1[C@H]1c2n[nH]c(=O)c3cc(F)cc(c23)N[C@@H]1c1ccc(F)cc1 + Cc1cccc(N(C)C(=O)C2C(O)CCN2c2nc(C)cc(C(F)(F)F)c2C#N)c1
IC50 (second compound 0.0316 µM): > 0.1 µM | IC50 (second compound 0.1 µM): > 0.1 µM | IC50 (second compound 0.316 µM): > 0.1 µM | IC50 (second compound 1 µM): > 0.1 µM | IC50 (second compound 3.16 µM): > 0.1 µM | IC50 (second compound 10 µM): > 0.1 µM | viability, T/C (second compound 0.0316 µM, first compound 0.000316 µM): 84.3% | viability, T/C (second compound 0.0316 µM, first compound 0.001 µM): 112% | viability, T/C (second compound 0.0316 µM, first compound 0.00316 µM): 123% | viability, T/C (second compound 0.0316 µM, first compound 0.01 µM): 93.3% | viability, T/C [1]: 124% | viability, T/C [2]: 112% | viability, T/C (second compound 0.1 µM, first compound 0.000316 µM): 105% | viability, T/C (second compound 0.1 µM, first compound 0.001 µM): 130% | viability, T/C (second compound 0.1 µM, first compound 0.00316 µM): 98.4% | viability, T/C (second compound 0.1 µM, first compound 0.01 µM): 83.8% | viability, T/C [3]: 91.8% | viability, T/C [4]: 86.9% | viability, T/C (second compound 0.316 µM, first compound 0.000316 µM): 97.9% | viability, T/C (second compound 0.316 µM, first compound 0.001 µM): 128% | viability, T/C (second compound 0.316 µM, first compound 0.00316 µM): 101% | viability, T/C (second compound 0.316 µM, first compound 0.01 µM): 92.7% | viability, T/C [5]: 110% | viability, T/C [6]: 99.4% | viability, T/C (second compound 1 µM, first compound 0.000316 µM): 92.1% | viability, T/C (second compound 1 µM, first compound 0.001 µM): 110% | viability, T/C (second compound 1 µM, first compound 0.00316 µM): 101% | viability, T/C (second compound 1 µM, first compound 0.01 µM): 104% | viability, T/C [7]: 99.7% | viability, T/C [8]: 115% | viability, T/C (second compound 3.16 µM, first compound 0.000316 µM): 103% | viability, T/C (second compound 3.16 µM, first compound 0.001 µM): 113% | viability, T/C (second compound 3.16 µM, first compound 0.00316 µM): 106% | viability, T/C (second compound 3.16 µM, first compound 0.01 µM): 78.5% | viability, T/C [9]: 91.7% | viability, T/C [10]: 106% | viability, T/C (second compound 10 µM, first compound 0.000316 µM): 105% | viability, T/C (second compound 10 µM, first compound 0.001 µM): 114% | viability, T/C (second compound 10 µM, first compound 0.00316 µM): 92.9% | viability, T/C (second compound 10 µM, first compound 0.01 µM): 74.8% | viability, T/C [11]: 106% | viability, T/C [12]: 92.5%

O=C(c1cc(Cc2n[nH]c(=O)c3ccccc23)ccc1F)N1CCN(C(=O)C2CC2)CC1 + Cc1cccc(N(C)C(=O)C2C(O)CCN2c2nc(C)cc(C(F)(F)F)c2C#N)c1
IC50 (second compound 0.0316 µM): > 10 µM | IC50 (second compound 0.1 µM): > 10 µM | IC50 (second compound 0.316 µM): > 10 µM | IC50 (second compound 1 µM): > 10 µM | IC50 (second compound 3.16 µM): > 10 µM | IC50 (second compound 10 µM): > 10 µM | viability, T/C [1]: 105% | viability, T/C [2]: 99.1% | viability, T/C (second compound 0.0316 µM, first compound 0.316 µM): 92.4% | viability, T/C (second compound 0.0316 µM, first compound 1 µM): 105% | viability, T/C (second compound 0.0316 µM, first compound 3.16 µM): 79.5% | viability, T/C (second compound 0.0316 µM, first compound 10 µM): 79.3% | viability, T/C [3]: 101% | viability, T/C [4]: 104% | viability, T/C (second compound 0.1 µM, first compound 0.316 µM): 93.2% | viability, T/C (second compound 0.1 µM, first compound 1 µM): 84.4% | viability, T/C (second compound 0.1 µM, first compound 3.16 µM): 87.1% | viability, T/C (second compound 0.1 µM, first compound 10 µM): 99% | viability, T/C [5]: 92.5% | viability, T/C [6]: 118% | viability, T/C (second compound 0.316 µM, first compound 0.316 µM): 96% | viability, T/C (second compound 0.316 µM, first compound 1 µM): 99.3% | viability, T/C (second compound 0.316 µM, first compound 3.16 µM): 90% | viability, T/C (second compound 0.316 µM, first compound 10 µM): 72% | viability, T/C [7]: 90.2% | viability, T/C [8]: 91.3% | viability, T/C (second compound 1 µM, first compound 0.316 µM): 91.5% | viability, T/C (second compound 1 µM, first compound 1 µM): 111% | viability, T/C (second compound 1 µM, first compound 3.16 µM): 107% | viability, T/C (second compound 1 µM, first compound 10 µM): 91.4% | viability, T/C [9]: 80.8% | viability, T/C [10]: 95.3% | viability, T/C (second compound 3.16 µM, first compound 0.316 µM): 92.8% | viability, T/C (second compound 3.16 µM, first compound 1 µM): 80.4% | viability, T/C (second compound 3.16 µM, first compound 3.16 µM): 108% | viability, T/C (second compound 3.16 µM, first compound 10 µM): 95.8% | viability, T/C [11]: 96.5% | viability, T/C [12]: 101% | viability, T/C (second compound 10 µM, first compound 0.316 µM): 86.1% | viability, T/C (second compound 10 µM, first compound 1 µM): 100% | viability, T/C (second compound 10 µM, first compound 3.16 µM): 106% | viability, T/C (second compound 10 µM, first compound 10 µM): 90.4%
